Consider ten compounds from article PMC6389928, “Biomolecular Interaction, Anti-Cancer and Anti-Angiogenic Properties of Cobalt(III) Schiff Base Complexes” (Scientific Reports, 2019).

The test system of data set [1] is DNA. In words: Viscosity measurement of DNA. The following applies: 30.0 ± 0.2 °C, increasing amounts of compound. The data set is classed as binding. The text has this: The mode of interaction between DNA and complexes has been further confirmed using viscosity measurements. The intercalation between DNA and metal complex causes lengthening of the DNA helix and increases DNA’s relative viscosity. Ethidium bromide (EB) is a well known DNA intercalator which was used as a standard to make sure our viscosity determination was working properly. […] The increase in relative viscosity follows the DNA-intercalating ability and the order of relative viscosity is EB > 2 > 1.
CD spectra of CT–DNA in the absence and presence of cobalt(III) complexes 1 and 2 were recorded in phosphate buffer. Each sample solution was scanned in the range of 200–320 nm, and final CD spectra were generated after averaging three scans subtracting the buffer background. Viscosity experiments were performed using an Ubbelohde viscometer at a constant temperature (30.0 ± 0.2 °C).

Data set [2] has as its system DNA. The following applies: cited from earlier work.
Another data set relates to A549 lung carcinoma cell. In words: MTT assay on A549 cells. The note with it: A549 lung cancer cells, tested separately. An excerpt: The anti-proliferative property of the complexes 1 and 2 at different concentrations on A549 lung carcinoma cell and monkey kidney epithelial cell Vero was examined by adopting MTT assay (Fig. S7). […] The naked cobalt acetate and ligands salen and salophen were separately tested on A549 cells to understand if metal chelation is the principal basis of the anticancer activity of the complexes.
Culture: Human lung cancer cells (A549) were received from National Centre for Cell Science (NCCS) Pune, India. Vero cells were obtained from ATCC. The cells were grown at humidified atmosphere of 5% CO2 in an incubator at 37 °C (Forma, Thermo Scientific, USA) in DMEM medium (Invitrogen) containing 10% FBS (Sigma-Aldrich, St. Louis, Mo, USA), 100 μg/mL of penicillin and 100 μg/mL streptomycin were used as antibiotics (Himedia, Mumbai, India). […] The cells were seeded in 96 well plates (5000 A549 cells per well) and allowed to attach for 24 h. The cells were then incubated with different concentrations of the metal complexes 1 and 2 dissolved in 100% dimethyl sulfoxide (DMSO) (Sigma-Aldrich) and prepared to a final dilution of 0.02% of DMSO.
In the determination of IC50 value, 0.02% DMSO was used as the solvent control. After the end of incubation period (24 h), the medium was aspirated carefully and replaced with new medium. The formazan formed was dissolved in100 μL of 100% DMSO to each well. The absorbance was monitored at 570 nm using a 96 well plate reader (Bio-Rad, Hercules, California, USA). All experiments were repeated for a minimum of three times when each experiment was done in two replicates.
(Tetrazolium dyes change colour on reduction, which living cells bring about.)

Where two headings read alike, the source gives them in different places.

With `CC[n+]1c(-c2ccccc2)c2cc(N)ccc2c2ccc(N)cc21` [EB, ethidium bromide, reference compound], the “effect on relative viscosity of DNA” value in the data set with DNA [1] is listed as “significant increase in the viscosity of the DNA solutions”. The Kb with DNA [2] (typical classical intercalator) is 494000 M⁻¹.
In the case of `CCCCCCCCCCCCN.CCCCCCCCCCCCN.NCCNCCN.[Cl-].[Co+3].[O-][Cl+3]([O-])([O-])[O-].[O-][Cl+3]([O-])([O-])[O-]` [[Co(dien)(DA)2Cl](ClO4)2], the Kb with DNA [2] is 14318 M⁻¹.
On to `CCCCCCCCCCCCN.NCCNCCN.[Cl-].[Cl-].[Co+3].[O-][Cl+3]([O-])([O-])[O-]` [[Co(dien)(DA)Cl2](ClO4)], for which the Kb with DNA [2] was 3110.8 M⁻¹.
`CCCCCCCCCCCN.[Cl-].[Co+3].[O-][Cl+3]([O-])([O-])[O-].[O-][Cl+3]([O-])([O-])[O-].c1ccc(-c2ccccn2)nc1.c1ccc(-c2ccccn2)nc1` [cis-[Co(bpy)2(C11H23NH2)Cl](ClO4)2]: the Kb with DNA [2] is 22100 M⁻¹.
For the compound `CCCCCCCCCCCCCCN.[Cl-].[Co+3].[O-][Cl+3]([O-])([O-])[O-].[O-][Cl+3]([O-])([O-])[O-].c1ccc(-c2ccccn2)nc1.c1ccc(-c2ccccn2)nc1` [cis-[Co(bpy)2(C14H29NH2)Cl](ClO4)2], the Kb in the data set with DNA [2] was 28600 M⁻¹.
For `CCCCCCCCCCCCCCN.NCCN.NCCN.[Cl-].[Co+3].[O-][Cl+3]([O-])([O-])[O-].[O-][Cl+3]([O-])([O-])[O-]` [cis-[Co(en)2(C14H29NH2)Cl](ClO4)2], in the data set with DNA [2], the Kb is 25900 M⁻¹.
As for `CC(=O)[O-].CC(=O)[O-].O.O.O.O.[Co+2]` [cobalt acetate, Cobalt(II) acetate tetrahydrate], the “concentration up to which not cytotoxic” value in the data set on A549 lung carcinoma cell is > 200 µM.
Still for that read-out and setting: under `Oc1ccccc1C=NCCN=Cc1ccccc1O` [salen, N,N’-bis(salicylidene)ethylenediamine] stands > 200 µM; under `Oc1ccccc1C=Nc1ccccc1N=Cc1ccccc1O` [salophen, N,N’-bis(salicylidene)-1,2-phenylenediamine], > 200 µM.
Regarding [Co(dien)(CA)Cl2](ClO4), the Kb with DNA [2] is 9005.2 M⁻¹.
